Measured values published in patent publication US5236946A, “Amino acid esters of cycloaliphatic alcohols and their use in treating lipemic disorders” (Panmedica S.A., priority 1986, dated 1993).
Counter-ions that a name gives are not always drawn.

What was measured:
[1] = tested on: experimental hyperlipemia induced by Triton (rats); test: Activity on the experimental hyperlipemia induced by Triton; type: in vivo; settings: rat, Triton 300 mg/kg i.p., 18 hours
Description: EXAMPLE XV-ACTIVITY ON THE EXPERIMENTAL HYPERLIPEMIA INDUCED BY TRITON
Groups of 10 fasted rats weighing about 200 g are treated with an intraperitoneal injection of Triton at a dose of 300 mg/kg; immediately afterwards, the products are administered orally.
After 18 hours, the cholesterol and triglycerides are determined.

[2] = biological target: T1, 3-hydroxy-3-methylglutaryl coenzyme A reductase (Rattus norvegicus, UniProt P51639); test: Inhibitory activity towards 3-hydroxy-3-methylglutaryl coenzyme A reductase (method of Shefer et al.); type: biochemical
T1 sequence (P51639 1-887): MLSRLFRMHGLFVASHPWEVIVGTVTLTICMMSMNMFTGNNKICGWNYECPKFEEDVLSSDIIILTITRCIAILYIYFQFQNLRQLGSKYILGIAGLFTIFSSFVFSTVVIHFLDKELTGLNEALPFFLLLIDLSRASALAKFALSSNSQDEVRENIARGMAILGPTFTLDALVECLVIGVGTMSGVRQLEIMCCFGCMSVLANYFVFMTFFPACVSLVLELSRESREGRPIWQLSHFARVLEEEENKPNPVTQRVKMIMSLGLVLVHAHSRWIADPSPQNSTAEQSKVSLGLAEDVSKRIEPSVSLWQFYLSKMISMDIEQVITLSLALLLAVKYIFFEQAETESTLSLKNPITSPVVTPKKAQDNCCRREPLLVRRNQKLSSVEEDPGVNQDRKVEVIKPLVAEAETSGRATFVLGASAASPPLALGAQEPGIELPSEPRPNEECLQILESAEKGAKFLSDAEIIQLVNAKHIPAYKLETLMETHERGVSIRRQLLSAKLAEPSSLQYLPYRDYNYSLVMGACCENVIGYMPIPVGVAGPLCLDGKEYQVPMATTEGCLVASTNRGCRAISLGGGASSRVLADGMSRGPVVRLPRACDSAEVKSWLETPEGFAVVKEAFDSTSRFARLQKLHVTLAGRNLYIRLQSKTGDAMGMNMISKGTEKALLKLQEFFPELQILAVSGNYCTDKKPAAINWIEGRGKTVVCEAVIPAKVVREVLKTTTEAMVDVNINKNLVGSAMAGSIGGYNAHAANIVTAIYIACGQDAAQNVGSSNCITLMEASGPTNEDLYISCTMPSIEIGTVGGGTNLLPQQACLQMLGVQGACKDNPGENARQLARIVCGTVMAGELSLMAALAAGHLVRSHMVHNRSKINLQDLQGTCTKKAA
From the text: EXAMPLE XVII-DETERMINATION OF THE INHIBITORY ACTIVITY OF THE COMPOUNDS TOWARDS 3-HYDROXY-3-METHYLGLUTARYL COENZYME A REDUCTASE
The method used is the one described by Shefer et al. (J. Lipid Res. 1972, 13, 402); cf. also Stokker (J. Med. Chem. 1985, 28, 357).

[3] = tested on: rats rendered hyperlipemic with olive oil; test: Hypolipemic activity in rats rendered hyperlipemic with olive oil; type: in vivo; settings: rat, atherogenic diet enriched with olive oil
Description: EXAMPLE XVI-HYPOLIPEMIC ACTIVITY IN RATS RENDERED HYPERLIPEMIC WITH OLIVE OIL
A group of rats is placed on an atherogenic hyperlipemic diet enriched with olive oil and the animals are then treated per os. The cholesterol and triglycerides are then determined as in the previous example. […]

cholesterol synthesis = settings: cited from earlier work
[4] = oral 150 mg/kg, listed as Ex. III
[5] = per os 100 mg/kg, listed as Ex. III
[6] = oral 150 mg/kg, listed as Ex. I
[7] = per os 100 mg/kg, listed as Ex. I
[8] = oral 150 mg/kg, listed as Ex. IV
[9] = per os 100 mg/kg, listed as Ex. IV

Compound | IC50 [2] | Cholesterol level ([1]; oral 150 mg/kg) | Triglyceride level ([1]; oral 150 mg/kg) | further results
CC1=CCC(OC(=O)[C@@H]2CCC(=O)N2)(C(C)C)CC1 (stereo partly drawn) [Example XIII, L-Pyroglutamate of terpin-4-enol] | 0.21 µM | 1.90 g/L | 1.20 g/L | –
CC1CC(OC(=O)[C@@H](N)CCC(=O)O)CC(C)(C)C1 (stereo partly drawn) [Example VI, TRANS-3,3,5-TRIMETHYLCYCLOHEXYL L-α-GLUTAMATE HYDROCHLORIDE] | 0.12 µM | 2.50 g/L | 2.00 g/L | –
CC1=CCC(C(C)(C)OC(=O)[C@@H]2CCC(=O)N2)CC1 (stereo partly drawn) [Example XIV, L-Pyroglutamate of terpineol] | 0.3 µM | 2.12 g/L | 1.10 g/L | –
CC1CC(OC(=O)[C@@H]2CCC(=O)N2)CC(C)(C)C1 (some centres unmarked) [Example III, 3,3,5-trimethylcyclohexyl pyroglutamate] | – | – | – | Cholesterol level [1, 4]: 2.00 g/L; Triglyceride level [1, 4]: 1.10 g/L; Cholesterol level [3, 5]: 1.47 g/L; Triglyceride level [3, 5]: 1.01 g/L
CC1CC(OC(=O)[C@@H](N)CCC(N)=O)CC(C)(C)C1 (stereo partly drawn) [Example V, trans-3,3,5-trimethylcyclohexyl L-γ-amidoglutamate hydrochloride] | 0.08 µM | 1.95 g/L | 1.15 g/L | Cholesterol level ([3]; per os 100 mg/kg): 1.62 g/L; Triglyceride level ([3]; per os 100 mg/kg): 0.92 g/L
CN(C)CCCN(C)[C@H]1CC[C@H]2[C@@H]3CC=C4C[C@@H](O)CC[C@]4(C)[C@H]3CC[C@]12C [20, 25-Diazacholesterol] | – | – | – | inhibits cholesterol synthesis (cholesterol synthesis): inhibits cholesterol synthesis
O=C(O)c1cccnc1 [nicotinic acid, reference compound] | – | – | – | Cholesterol level ([1]; oral 500 mg/kg): 5.00 g/L; Triglyceride level ([1]; oral 500 mg/kg): 1.41 g/L
CC(=O)N[C@@H](CC(=O)O)C(=O)OC1CC(C)CC(C)(C)C1 (stereo partly drawn) [Example VII, MAGNESIUM SALT OF 3,3,5-TRIMETHYLCYCLOHEXYL N-ACETYL-L-α-ASPARTATE] | 0.5 µM | 3.00 g/L | 2.70 g/L | –

Further lines, with some results ahead:

IC50 [2] | Compound | Cholesterol level ([1]; oral 150 mg/kg) | Triglyceride level ([1]; oral 150 mg/kg) | further results
0.6 µM | CC1(OC(=O)[C@@H]2CCC(=O)N2)CCCC1 [Example XII, L-Pyroglutamate of 1-methylcyclopentanol] | – | – | –
0.55 µM | O=C1CC[C@@H](C(=O)OC2CCCCC2)N1 [Example VIII, L-Pyroglutamate of cyclohexanol] | – | – | –
0.4 µM | CC1CCCC(C)C1OC(=O)[C@@H]1CCC(=O)N1 (stereo partly drawn) [Example X, L-Pyroglutamate of 2,6-dimethylcyclohexanol] | – | – | –
0.13 µM | CC1=CC(OC(=O)[C@@H]2CCC(=O)N2)CC(C)(C)C1 (stereo partly drawn) [Example XI, L-Pyroglutamate of 3,5,5-trimethylcyclohex-2-en-1-ol] | 2.00 g/L | 1.92 g/L | –
0.1 µM | CC1CC(OC(=O)[C@@H]2CCC(=O)N2)CC(C)(C)C1 (single isomer, unassigned) [Example I, 3,3,5-Trimethylcyclohexyl L-pyroglutamate] | – | – | Cholesterol level ([1]; oral 50 mg/kg): 2.80 g/L; Triglyceride level ([1]; oral 50 mg/kg): 1.46 g/L; Cholesterol level [1, 6]: 1.95 g/L; Triglyceride level [1, 6]: 0.93 g/L; Cholesterol level ([3]; per os 25 mg/kg): 1.73 g/L; Triglyceride level ([3]; per os 25 mg/kg): 1.39 g/L; Cholesterol level [3, 7]: 1.50 g/L; Triglyceride level [3, 7]: 0.80 g/L
0.15 µM | CC1CC(OC(=O)[C@@H]2CCC(=O)N2)CC(C)(C)C1 (single isomer, unassigned) [Example IV, 3,3,5-TRIMETHYLCYCLOHEXYL PYROGLUTAMATE] | – | – | Cholesterol level [1, 8]: 2.15 g/L; Triglyceride level [1, 8]: 0.85 g/L; Cholesterol level [3, 9]: 1.47 g/L; Triglyceride level [3, 9]: 0.80 g/L
0.4 µM | CC1CC(C)CC(OC(=O)[C@@H]2CCC(=O)N2)C1 (stereo partly drawn) [Example IX, L-Pyroglutamate of 3,5-dimethylcyclohexanol] | 2.10 g/L | 1.30 g/L | –
